Measured values from US20240116892A1, “HETEROCYCLIC AMIDE AND UREA COMPOUNDS AS JAK2 INHIBITORS” (Ajax Therapeutics, Inc., priority 2022, published 2024).

Target: JAK2 (JH1 domain-catalytic, Y1007F, Y1008F) kinase (Homo sapiens (Human), UniProt O60674, Y1007F/Y1008F)
Assay: JAK2 JH1 Domain Binding Assay
Conditions: qPCR readout
Summary of the method: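 JH1 catalytic domain (Y1007F/Y1008F) expressed as NFkB DNA-binding-domain fusion in HEK293 cells, DNA-tagged. Competition with immobilized biotinylated ligand on streptavidin beads, 1 h at RT in PBS/Tween/BSA/DTT; bound kinase eluted with free ligand and quantified by qPCR.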

Chain of JAK2 (JH1 domain-catalytic, Y1007F, Y1008F) kinase (O60674 849-1124 Y1007F/Y1008F): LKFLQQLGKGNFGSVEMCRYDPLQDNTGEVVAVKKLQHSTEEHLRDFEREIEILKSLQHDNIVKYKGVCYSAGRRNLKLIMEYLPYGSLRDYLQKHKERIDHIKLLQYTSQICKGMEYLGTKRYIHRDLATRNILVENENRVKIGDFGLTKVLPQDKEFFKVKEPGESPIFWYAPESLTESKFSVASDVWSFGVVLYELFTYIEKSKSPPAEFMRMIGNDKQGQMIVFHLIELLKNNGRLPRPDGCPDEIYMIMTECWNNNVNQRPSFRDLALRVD

| SMILES | Kd |
| --- | --- |
| C[C@@H]1CN(c2cnc3[nH]ncc3c2)CC[C@@H]1N(C)C(=O)Nc1cc(C(F)(F)F)cn(C)c1=O [Example I-70-a, 1-methyl-1-((3R,4S)-3-methyl-1-(1H-pyrazolo[3,4-b]pyridin-5-yl)piperidin-4-yl)-3-(1-methyl-2-oxo-5-(trifluoromethyl)-1,2-dihydropyridin-3-yl)urea] | < 10 nM |
| C[C@H]1CN(c2cnc3[nH]ncc3c2)CC[C@H]1N(C)C(=O)Nc1cc(C(F)(F)F)cn(C)c1=O [Example I-70-b, 1-methyl-1-((3S,4R)-3-methyl-1-(1H-pyrazolo[3,4-b]pyridin-5-yl)piperidin-4-yl)-3-(1-methyl-2-oxo-5-(trifluoromethyl)-1,2-dihydropyridin-3-yl)urea] | < 10 nM |
| C[C@H]1CN(c2cnc3[nH]ncc3c2)CC[C@@H]1N(C)C(=O)Nc1cc(C(F)(F)F)cn(C)c1=O [Example I-74-a, 1-methyl-1-((3S,4S)-3-methyl-1-(1H-pyrazolo[3,4-b]pyridin-5-yl)piperidin-4-yl)-3-(1-methyl-2-oxo-5-(trifluoromethyl)-1,2-dihydropyridin-3-yl)urea] | < 10 nM |
| C[C@@H]1CN(c2cnc3[nH]ncc3c2)CC[C@H]1N(C)C(=O)Nc1cc(C(F)(F)F)cn(C)c1=O [Example I-74-b, 1-methyl-1-((3R,4R)-3-methyl-1-(1H-pyrazolo[3,4-b]pyridin-5-yl)piperidin-4-yl)-3-(1-methyl-2-oxo-5-(trifluoromethyl)-1,2-dihydropyridin-3-yl)urea] | 50 to 1000 nM |
| CN(C(=O)Nc1cc(C(F)(F)F)cn(C)c1=O)[C@H]1CCN(c2cnc3[nH]ncc3n2)C[C@H]1F [Example I-83-a, 1-((3R,4S)-3-fluoro-1-(1H-pyrazolo[3,4-b]pyrazin-5-yl)piperidin-4-yl)-1-methyl-3-(1-methyl-2-oxo-5-(trifluoromethyl)-1,2-dihydropyridin-3-yl)urea] | < 10 nM |
| CN(C(=O)Nc1cc(C(F)(F)F)cn(C)c1=O)[C@@H]1CCN(c2cnc3[nH]ncc3n2)C[C@@H]1F [Example I-83-b, 1-((3S,4R)-3-fluoro-1-(1H-pyrazolo[3,4-b]pyrazin-5-yl)piperidin-4-yl)-1-methyl-3-(1-methyl-2-oxo-5-(trifluoromethyl)-1,2-dihydropyridin-3-yl)urea] | < 10 nM |
| COc1n[nH]c2ncc(N3CC[C@H](N(C)C(=O)Nc4cc(C(F)(F)F)cn(C)c4=O)[C@@H](F)C3)cc12 [Example I-84-a, 1-((3S,4S)-3-fluoro-1-(3-methoxy-1H-pyrazolo[3,4-b]pyridin-5-yl)piperidin-4-yl)-1-methyl-3-(1-methyl-2-oxo-5-(trifluoromethyl)-1,2-dihydropyridin-3-yl)urea] | < 10 nM |

Second part, the compound after the results:

| Kd | SMILES |
| --- | --- |
| 50 to 1000 nM | Cn1cc(C(F)(F)F)cc(NC(=O)N2CCC23CCN(c2cnc4[nH]ccc4n2)CC3)c1=O [Example I-67, N-(1-methyl-2-oxo-5-(trifluoromethyl)-1,2-dihydropyridin-3-yl)-7-(5H-pyrrolo[2,3-b]pyrazin-2-yl)-1,7-diazaspiro[3.5]nonane-1-carboxamide] |
| < 10 nM | CN(C(=O)Nc1cc(C(F)(F)F)cn(C)c1=O)C1CCN(c2cnc3[nH]ncc3n2)CC1 [Example I-68, 1-(1-(1H-pyrazolo[3,4-b]pyrazin-5-yl)piperidin-4-yl)-1-methyl-3-(1-methyl-2-oxo-5-(trifluoromethyl)-1,2-dihydropyridin-3-yl)urea] |
| < 10 nM | COc1n[nH]c2ncc(N3CCC(N(C)C(=O)Nc4cc(C(F)(F)F)cn(C)c4=O)CC3)cc12 [Example I-69, 1-(1-(3-methoxy-1H-pyrazolo[3,4-b]pyridin-5-yl)piperidin-4-yl)-1-methyl-3-(1-methyl-2-oxo-5-(trifluoromethyl)-1,2-dihydropyridin-3-yl)urea] |
| 50 to 1000 nM | Cn1cc(C(F)(F)F)cc(NC(=O)OC2(C)CCN(c3cnc4[nH]ccc4n3)CC2)c1=O [Example I-71, 4-methyl-1-(5H-pyrrolo[2,3-b]pyrazin-2-yl)piperidin-4-yl (1-methyl-2-oxo-5-(trifluoromethyl)-1,2-dihydropyridin-3-yl)carbamate] |
| < 10 nM | CN(C(=O)Nc1cc(C(F)(F)F)cn(C)c1=O)C1CC2(C1)CN(c1cnc3[nH]ncc3n1)C2 [Example I-72, 1-(2-(1H-pyrazolo[3,4-b]pyrazin-5-yl)-2-azaspiro[3.3]heptan-6-yl)-1-methyl-3-(1-methyl-2-oxo-5-(trifluoromethyl)-1,2-dihydropyridin-3-yl)urea] |
| < 10 nM | CN(C(=O)Nc1cc(C(F)(F)F)cn(C)c1=O)C1CCN(c2cnc3cn[nH]c3c2)CC1 [Example I-73, 1-(1-(1H-pyrazolo[4,3-b]pyridin-6-yl)piperidin-4-yl)-1-methyl-3-(1-methyl-2-oxo-5-(trifluoromethyl)-1,2-dihydropyridin-3-yl)urea] |
| ≥ 5000 nM | CN(C(=O)Nc1cc(C(F)(F)F)cn(C)c1=O)C1CC2(C1)CN(c1cnc3[nH]cc(C#N)c3n1)C2 [Example I-75, 1-(2-(7-cyano-5H-pyrrolo[2,3-b]pyrazin-2-yl)-2-azaspiro[3.3]heptan-6-yl)-1-methyl-3-(1-methyl-2-oxo-5-(trifluoromethyl)-1,2-dihydropyridin-3-yl)urea] |
| < 10 nM | CN(C(=O)Nc1cc(C(F)(F)F)cn(C)c1=O)C1CCN(c2cnc3[nH]c(=O)[nH]c3c2)CC1 [Example I-76, 1-methyl-3-(1-methyl-2-oxo-5-(trifluoromethyl)-1,2-dihydropyridin-3-yl)-1-(1-(2-oxo-2,3-dihydro-1H-imidazo[4,5-b]pyridin-6-yl)piperidin-4-yl)urea] |
| < 10 nM | COCc1cc2nc(N3CCC(N(C)C(=O)Nc4cc(C(F)(F)F)cn(C)c4=O)CC3)cnc2[nH]1 [Example I-77, 1-(1-(6-(methoxymethyl)-5H-pyrrolo[2,3-b]pyrazin-2-yl)piperidin-4-yl)-1-methyl-3-(1-methyl-2-oxo-5-(trifluoromethyl)-1,2-dihydropyridin-3-yl)urea] |
| 10 to 50 nM | Cn1cc(C(F)(F)F)cc(NC(=O)N2CC=CC23CCN(c2cnc4[nH]ccc4n2)CC3)c1=O [Example I-78, N-(1-methyl-2-oxo-5-(trifluoromethyl)-1,2-dihydropyridin-3-yl)-8-(5H-pyrrolo[2,3-b]pyrazin-2-yl)-1,8-diazaspiro[4.5]dec-3-ene-1-carboxamide] |
| 10 to 50 nM | CN(C(=O)Nc1cc(C(F)(F)F)cn(C)c1=O)[C@H]1[C@@H]2CC[C@H]1CN(c1cnc3[nH]ccc3n1)C2 [Example I-79, 1-(3-(5H-pyrrolo[2,3-b]pyrazin-2-yl)-3-azabicyclo[3.2.1]octan-8-yl)-1-methyl-3-(1-methyl-2-oxo-5-(trifluoromethyl)-1,2-dihydropyridin-3-yl)urea] |
| 10 to 50 nM | CN(C(=O)Nc1cc(C(F)(F)F)cn(C)c1=O)[C@H]1[C@@H]2CC[C@H]1CN(c1cnc3[nH]ncc3c1)C2 [Example I-80, 1-(3-(1H-pyrazolo[3,4-b]pyridin-5-yl)-3-azabicyclo[3.2.1]octan-8-yl)-1-methyl-3-(1-methyl-2-oxo-5-(trifluoromethyl)-1,2-dihydropyridin-3-yl)urea] |
| 10 to 50 nM | Cn1cc(C(F)(F)F)cc(NC(=O)N2CC=CC23CCN(c2cnc4[nH]ncc4c2)CC3)c1=O [Example I-81, N-(1-methyl-2-oxo-5-(trifluoromethyl)-1,2-dihydropyridin-3-yl)-8-(1H-pyrazolo[3,4-b]pyridin-5-yl)-1,8-diazaspiro[4.5]dec-3-ene-1-carboxamide] |
